The text below walks through data of US20240383875A1, “Benzimidazole Pyridine Derivatives” (Hoffmann-La Roche Inc., priority 2022, published 2024).

Holding throughout (type): biochemical
In one assay the target is SIK1 (Homo sapiens, UniProt P57059). Briefly: Enzymatic activity assay SIK1, RapidFire mass spectrometry (phosphorylation of CHK-peptide). As to conditions: RapidFire MS, inhibition of SIK1; read-out: SIK1 RF IC50. An outline of the steps:
(§1)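 Compounds (12-point, 3-fold, generally 30 μM to 170 pM) were pre-incubated 30 min at ambient temperature with SIK1 (5 nM), SIK2 (0.5 nM) or SIK3 (1.5 nM) in HEPES pH 7.0/magnesium acetate buffer. CHK-peptide (10 μM solution) and ATP (100 μM solution) were then added for 45 min before formic acid quench.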

In a further assay the target is SIK2 (Homo sapiens, UniProt Q9H0K1). Briefly: Enzymatic activity assay SIK2, RapidFire mass spectrometry (phosphorylation of CHK-peptide). To be noted: RapidFire MS, inhibition of SIK2; read-out: SIK2 RF IC50. An outline of the steps: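 SIK2 (0.5 nM) in pH 7.0 HEPES buffer with 10 mM Mg acetate phosphorylates CHK-peptide (10 μM solution) with 100 μM ATP solution, 45 min ambient, then formic acid quench.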
Sequence of SIK2 (Q9H0K1 whole entry): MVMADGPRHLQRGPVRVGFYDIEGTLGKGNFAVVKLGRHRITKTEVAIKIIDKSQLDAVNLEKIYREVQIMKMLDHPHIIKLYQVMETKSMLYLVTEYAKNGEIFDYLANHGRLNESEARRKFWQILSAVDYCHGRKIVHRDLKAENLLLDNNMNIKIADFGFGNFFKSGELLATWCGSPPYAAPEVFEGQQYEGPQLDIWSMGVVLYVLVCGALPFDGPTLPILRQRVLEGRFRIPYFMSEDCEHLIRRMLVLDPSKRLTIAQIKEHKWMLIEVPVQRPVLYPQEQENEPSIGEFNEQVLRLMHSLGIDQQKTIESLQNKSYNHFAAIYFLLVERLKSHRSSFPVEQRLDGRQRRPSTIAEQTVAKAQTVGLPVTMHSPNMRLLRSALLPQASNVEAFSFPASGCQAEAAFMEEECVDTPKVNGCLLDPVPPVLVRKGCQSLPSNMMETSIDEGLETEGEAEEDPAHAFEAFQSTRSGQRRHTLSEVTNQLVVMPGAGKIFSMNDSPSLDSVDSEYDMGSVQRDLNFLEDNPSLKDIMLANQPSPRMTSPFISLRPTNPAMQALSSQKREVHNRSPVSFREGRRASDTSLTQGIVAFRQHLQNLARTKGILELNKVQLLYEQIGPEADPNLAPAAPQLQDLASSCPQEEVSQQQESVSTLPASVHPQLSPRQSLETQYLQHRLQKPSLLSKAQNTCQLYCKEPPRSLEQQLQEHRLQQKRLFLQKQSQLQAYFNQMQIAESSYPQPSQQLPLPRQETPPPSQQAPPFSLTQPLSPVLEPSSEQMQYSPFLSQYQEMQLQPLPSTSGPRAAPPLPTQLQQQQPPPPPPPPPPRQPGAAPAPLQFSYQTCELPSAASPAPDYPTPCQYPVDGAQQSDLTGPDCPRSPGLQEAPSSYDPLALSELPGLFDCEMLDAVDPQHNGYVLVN

In a further assay the target is SIK3 (Homo sapiens, UniProt Q9Y2K2). The assay can be described thus: Enzymatic activity assay SIK3, RapidFire mass spectrometry (phosphorylation of CHK-peptide). As to conditions: RapidFire MS, inhibition of SIK3; read-out: SIK3 RF IC50. Put shortly:
as §1

Sequence of SIK3 (Q9Y2K2 whole entry): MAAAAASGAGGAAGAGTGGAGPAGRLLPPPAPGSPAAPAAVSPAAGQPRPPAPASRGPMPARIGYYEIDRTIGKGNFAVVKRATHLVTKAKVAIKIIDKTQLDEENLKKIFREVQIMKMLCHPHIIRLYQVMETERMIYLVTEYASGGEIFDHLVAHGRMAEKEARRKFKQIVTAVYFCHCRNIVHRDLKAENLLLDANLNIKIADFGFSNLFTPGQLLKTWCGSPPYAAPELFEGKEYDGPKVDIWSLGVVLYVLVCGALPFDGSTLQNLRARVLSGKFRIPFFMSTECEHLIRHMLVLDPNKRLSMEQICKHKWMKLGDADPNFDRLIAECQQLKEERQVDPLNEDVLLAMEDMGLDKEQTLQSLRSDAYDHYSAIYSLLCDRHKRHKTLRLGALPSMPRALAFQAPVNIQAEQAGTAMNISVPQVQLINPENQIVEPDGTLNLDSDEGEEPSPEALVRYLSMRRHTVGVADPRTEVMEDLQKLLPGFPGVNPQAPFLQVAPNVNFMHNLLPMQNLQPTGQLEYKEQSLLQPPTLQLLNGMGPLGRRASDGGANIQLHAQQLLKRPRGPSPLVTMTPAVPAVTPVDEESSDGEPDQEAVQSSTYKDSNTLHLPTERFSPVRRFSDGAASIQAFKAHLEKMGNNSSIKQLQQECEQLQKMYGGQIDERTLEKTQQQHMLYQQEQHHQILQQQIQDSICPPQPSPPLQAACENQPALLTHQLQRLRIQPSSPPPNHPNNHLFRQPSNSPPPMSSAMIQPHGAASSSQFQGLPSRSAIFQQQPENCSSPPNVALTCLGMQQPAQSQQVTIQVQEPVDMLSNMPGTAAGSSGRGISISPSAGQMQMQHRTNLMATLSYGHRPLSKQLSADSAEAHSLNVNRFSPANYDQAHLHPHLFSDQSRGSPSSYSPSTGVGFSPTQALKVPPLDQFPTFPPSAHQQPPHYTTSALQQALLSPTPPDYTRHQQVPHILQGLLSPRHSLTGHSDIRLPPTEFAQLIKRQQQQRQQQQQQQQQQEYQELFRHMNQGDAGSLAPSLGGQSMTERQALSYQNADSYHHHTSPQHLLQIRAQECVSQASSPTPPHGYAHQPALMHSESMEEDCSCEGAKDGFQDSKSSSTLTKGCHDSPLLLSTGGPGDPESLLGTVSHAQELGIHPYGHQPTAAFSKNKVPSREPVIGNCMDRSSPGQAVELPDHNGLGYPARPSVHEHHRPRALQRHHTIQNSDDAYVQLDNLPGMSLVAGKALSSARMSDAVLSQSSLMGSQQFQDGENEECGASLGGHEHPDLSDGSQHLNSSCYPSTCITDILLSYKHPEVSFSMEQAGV
Sequence of SIK1 (P57059 whole entry): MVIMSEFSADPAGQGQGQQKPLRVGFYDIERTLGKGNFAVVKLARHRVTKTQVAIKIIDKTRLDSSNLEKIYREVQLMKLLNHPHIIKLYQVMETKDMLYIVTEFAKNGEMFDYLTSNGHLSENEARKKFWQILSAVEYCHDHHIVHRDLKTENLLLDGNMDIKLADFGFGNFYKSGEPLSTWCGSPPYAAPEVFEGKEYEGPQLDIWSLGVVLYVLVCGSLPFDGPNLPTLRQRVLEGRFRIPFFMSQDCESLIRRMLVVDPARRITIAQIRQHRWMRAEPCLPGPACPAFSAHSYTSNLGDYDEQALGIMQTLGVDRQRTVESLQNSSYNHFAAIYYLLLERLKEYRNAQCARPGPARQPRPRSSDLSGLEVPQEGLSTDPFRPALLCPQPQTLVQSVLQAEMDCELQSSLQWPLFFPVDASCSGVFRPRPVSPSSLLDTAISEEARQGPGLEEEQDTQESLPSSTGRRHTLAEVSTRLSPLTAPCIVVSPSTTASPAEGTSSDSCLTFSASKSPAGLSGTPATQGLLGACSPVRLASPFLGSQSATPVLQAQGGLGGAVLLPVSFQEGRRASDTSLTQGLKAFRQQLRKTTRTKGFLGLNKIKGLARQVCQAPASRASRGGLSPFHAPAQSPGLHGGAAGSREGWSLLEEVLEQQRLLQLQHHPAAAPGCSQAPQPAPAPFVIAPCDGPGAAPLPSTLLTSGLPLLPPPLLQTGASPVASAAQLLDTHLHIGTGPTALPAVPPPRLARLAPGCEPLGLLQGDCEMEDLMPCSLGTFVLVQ

As usually defined, the IC50 is the concentration at which inhibition is half-maximal. With `Cc1cc(C#N)nn1-c1nc(-n2cnc3cc(Nc4ccc(F)c(F)c4F)c(F)cc32)ccc1C(C)O` (stereo not drawn) [Example 378, 1-[6-[6-fluoro-5-(2,3,4-trifluoroanilino)benzimidazol-1-yl]-3-(1-hydroxyethyl)-2-pyridyl]-5-methyl-pyrazole-3-carbonitrile], the IC50 at SIK1 was determined as 79 nM; at SIK2 it was 32.5 nM; at SIK3 it was 21.7 nM.
In the same order, the values of `Cc1cc(C#N)nn1-c1nc(-n2cnc3cc(F)c(Nc4ccc(F)c(F)c4F)cc32)ccc1C(C)O` (stereo not drawn) [Example 379, 1-[6-[5-fluoro-6-(2,3,4-trifluoroanilino)benzimidazol-1-yl]-3-(1-hydroxyethyl)-2-pyridyl]-5-methyl-pyrazole-3-carbonitrile] are 1 nM, 0.2 nM and 0.4 nM.
As for `Cc1cc(C#N)nn1-c1nc(-n2cnc3cc(NC(=O)C4(F)CC4)ccc32)ccc1C(C)O` (stereo not drawn) [Example 380, N-[1-[6-(3-cyano-5-methyl-pyrazol-1-yl)-5-(1-hydroxyethyl)-2-pyridyl]benzimidazol-5-yl]-1-fluoro-cyclopropanecarboxamide], the IC50 on SIK1 was 81 nM; on SIK2, 16.6 nM; at SIK3 it was 12.4 nM.
In the same order, the values of `Cc1cc(C#N)nn1-c1nc(-n2cnc3cc(F)c(Nc4cc5c(nn4)CCC5)cc32)ccc1C(C)O` (stereo not drawn) [Example 381, 1-[6-[6-(6,7-dihydro-5~{H}-cyclopenta[c]pyridazin-3-ylamino)-5-fluoro-benzimidazol-1-yl]-3-(1-hydroxyethyl)-2-pyridyl]-5-methyl-pyrazole-3-carbonitrile] are 55 nM, 32.7 nM and 195 nM.
As for `Cc1cc(C#N)nn1-c1nc(-n2cnc3cc(Nc4cc5c(nn4)CCC5)c(F)cc32)ccc1C(C)O` (stereo not drawn) [Example 382, 1-[6-[5-(6,7-dihydro-5~{H}-cyclopenta[c]pyridazin-3-ylamino)-6-fluoro-benzimidazol-1-yl]-3-(1-hydroxyethyl)-2-pyridyl]-5-methyl-pyrazole-3-carbonitrile], the IC50 worked out at 207 nM on SIK1, 0.5 nM at SIK2 and 0.6 nM on SIK3.
In the case of `Cc1ccc(Nc2cc3ncn(-c4ccc([C@H](C)O)c(-n5nc(OC(F)F)cc5C)n4)c3cc2OC2COC2)nn1` [Example 383, (1S)-1-[2-[3-(difluoromethoxy)-5-methyl-pyrazol-1-yl]-6-[5-[(6-methylpyridazin-3-yl)amino]-6-(oxetan-3-yloxy)benzimidazol-1-yl]-3-pyridyl]ethanol], the IC50 at SIK1 turned out to be 5 nM; at SIK2, 0.2 nM; at SIK3, 0.5 nM.
In the same order, the values of `Cc1ccc(Nc2cc3ncn(-c4ccc([C@@H](C)O)c(-n5nc(OC(F)F)cc5C)n4)c3cc2OC2COC2)nn1` [Example 384, (1R)-1-[2-[3-(difluoromethoxy)-5-methyl-pyrazol-1-yl]-6-[5-[(6-methylpyridazin-3-yl)amino]-6-(oxetan-3-yloxy)benzimidazol-1-yl]-3-pyridyl]ethanol] are 215 nM, 41.3 nM and 80.2 nM.
As to `Cc1nnc(Nc2cc3ncn(-c4ccc(C(C)O)c(-n5nc(C#N)cc5C)n4)c3cc2F)s1` (stereo not drawn) [Example 385, 1-[6-[6-fluoro-5-[(5-methyl-1,3,4-thiadiazol-2-yl)amino]benzimidazol-1-yl]-3-(1-hydroxyethyl)-2-pyridyl]-5-methyl-pyrazole-3-carbonitrile], the IC50 was found to be 22 nM on SIK1, 2.8 nM on SIK2 and 2.5 nM at SIK3.
Regarding `Cc1ccc(Nc2ccc3c(c2)ncn3-c2ccc(C(C)O)c(-c3ccn(CC(F)(F)F)c(=O)c3F)n2)nn1` (stereo not drawn) [Example 386, 3-fluoro-4-[3-(1-hydroxyethyl)-6-[5-[(6-methylpyridazin-3-yl)amino]benzimidazol-1-yl]-2-pyridyl]-1-(2,2,2-trifluoroethyl)pyridin-2-one], the IC50 on SIK1 turned out to be 69 nM; at SIK2, 1.2 nM; at SIK3, 1.2 nM.
As for `Cc1ccc(Nc2cc3ncn(-c4ccc(C(C)O)c(-n5nc(C(F)F)cc5C(F)F)n4)c3cc2F)nn1` (stereo not drawn) [Example 387, 1-[2-[3,5-bis(difluoromethyl)pyrazol-1-yl]-6-[6-fluoro-5-[(6-methylpyridazin-3-yl)amino]benzimidazol-1-yl]-3-pyridyl]ethanol], the values for the IC50 on SIK1, at SIK2 and at SIK3 were 462 nM, 2.3 nM and 1.8 nM, respectively.
For the molecule `Cc1ccc(Nc2cc3ncn(-c4ccc(C(C)O)c(-n5nc(C#N)cc5C)n4)c3cc2OC(F)F)nn1` (stereo not drawn) [Example 388, 1-[6-[6-(difluoromethoxy)-5-[(6-methylpyridazin-3-yl)amino]benzimidazol-1-yl]-3-(1-hydroxyethyl)-2-pyridyl]-5-methyl-pyrazole-3-carbonitrile], the values for the IC50 at SIK1, at SIK2 and at SIK3 were 11 nM, 0.4 nM and 0.7 nM, respectively.
Turning to `Cc1ncc(Nc2cc3ncn(-c4ccc([C@H](C)O)c(-n5nc(C#N)cc5C)n4)c3cc2F)cc1F` [Example 391, 1-[6-[6-fluoro-5-[(5-fluoro-6-methyl-3-pyridyl)amino]benzimidazol-1-yl]-3-[(1S)-1-hydroxyethyl]-2-pyridyl]-5-methyl-pyrazole-3-carbonitrile], the results for the IC50 at SIK1, at SIK2 and at SIK3 were 23 nM, 4.5 nM and 2 nM, respectively.
With `Cc1cc(C#N)nn1-c1nc(-n2cnc3cc(-c4cnc(N5CCCC5=O)o4)ccc32)ccc1C(C)O` (stereo not drawn) [Example 392, 1-[3-(1-hydroxyethyl)-6-[5-[2-(2-oxopyrrolidin-1-yl)oxazol-5-yl]benzimidazol-1-yl]-2-pyridyl]-5-methyl-pyrazole-3-carbonitrile], the IC50 was found to be 10 nM on SIK1, 2 nM at SIK2 and 4.5 nM on SIK3.
Take `Cc1ccc(Nc2ccc3c(c2)ncn3-c2ccc(C(C)O)c(OC3CNCC3(F)F)n2)nn1` (stereo not drawn) [Example 393, 1-[2-(4,4-difluoropyrrolidin-3-yl)oxy-6-[5-[(6-methylpyridazin-3-yl)amino]benzimidazol-1-yl]-3-pyridyl]ethanol]: the IC50 on SIK1 was determined as 750 nM; on SIK2 it was 25.2 nM; on SIK3, 5.5 nM.
The like results for `COc1cc2c(cc1Nc1cc3c(nn1)CCOC3)ncn2-c1ccc(C(C)O)c(-n2nc(C#N)cc2C)n1` (stereo not drawn) [Example 394, 1-[6-[5-(7,8-dihydro-5~{H}-pyrano[4,3-c]pyridazin-3-ylamino)-6-methoxy-benzimidazol-1-yl]-3-(1-hydroxyethyl)-2-pyridyl]-5-methyl-pyrazole-3-carbonitrile] were, in that order, 13 nM, 0.3 nM and 0.6 nM.
In the same order, the values of `Cc1ccc(Nc2ccc3c(c2)ncn3-c2ccc(C(C)O)c(-c3cc(OC(F)F)nnc3C)n2)nn1` (stereo not drawn) [Example 396, 1-[2-[6-(difluoromethoxy)-3-methyl-pyridazin-4-yl]-6-[5-[(6-methylpyridazin-3-yl)amino]benzimidazol-1-yl]-3-pyridyl]ethanol] are 1120 nM, 13.5 nM and 5.6 nM.
In the same order, the values of `COc1cc(C(F)F)nn1-c1nc(-n2cnc3ccc(Nc4ccc(C)nn4)cc32)ccc1C(C)O` (stereo not drawn) [Example 397, 1-[2-[3-(difluoromethyl)-5-methoxy-pyrazol-1-yl]-6-[6-[(6-methylpyridazin-3-yl)amino]benzimidazol-1-yl]-3-pyridyl]ethanol] are 37 nM, 20.5 nM and 172 nM.
